According to ChEMBL document CHEMBL3407446, “Effect of new hybrids based on 5,16-pregnadiene scaffold linked to an anti-inflammatory drug on the growth of a human astrocytoma cell line (U373)” (Eur J Med Chem, 2015):
The source made the active and inactive calls. No cut-off for these calls is given here.

Assays:
[1] = test system: U-373MG ATCC; assay: Antiproliferative activity against human U373MG cells assessed reduction in cell number at 1 nM and 10 nM incubated for 1 to 6 days by trypan blue dye exclusion dye based inverted microscopy; assay type: functional
[2] = test system: U-373MG ATCC; assay: Antiproliferative activity against human U373MG cells assessed as effect on cell number at 1 nM to 10 uM incubated for 1 to 6 days by trypan blue dye exclusion dye based inverted microscopy; assay type: functional
[3] = test system: U-373MG ATCC; assay: Antiproliferative activity against human U373MG cells assessed reduction in cell number at 1 nM and 10 uM incubated for 1 to 6 days by trypan blue dye exclusion dye based inverted microscopy; assay type: functional
[4] = test system: U-373MG ATCC; assay: Induction of cell proliferation of human U373MG cells at 1 nM and 10 nM incubated for 1 to 6 days by trypan blue dye exclusion dye based inverted microscopy; assay type: functional
[5] = Antiproliferative activity against human U373MG cells assessed reduction in cell number at 10 uM incubated for 6 days by trypan blue dye exclusion dye based inverted microscopy; assay type: functional, U-373MG ATCC; settings: U373 MG, 144 h
[6] = test system: U-373MG ATCC; assay: Antiproliferative activity against human U373MG cells assessed reduction in cell number at 10 uM incubated for 1 to 6 days by trypan blue dye exclusion dye based inverted microscopy; assay type: functional
[7] = test system: U-373MG ATCC; assay: Antiproliferative activity against human U373MG cells assessed reduction in cell number at 1 nM and 5 uM incubated for 1 to 6 days by trypan blue dye exclusion dye based inverted microscopy; assay type: functional

Q: Which Activity [1] does the source give for CC1=C(CC(=O)O)c2cc(F)ccc2/C1=C\c1ccc([S+](C)[O-])cc1 (stereo not drawn) here?
A: Active

Q: And the Activity [2]?
A: Active

Q: For CC(C(=O)O)c1cccc(C(=O)c2ccccc2)c1 (stereo not drawn), which Activity [2] is on record?
A: inactive

Q: With COc1ccc2cc([C@@H](C)C(=O)O[C@@H]3C=C4C(=O)C[C@@H]5[C@H](CC[C@]6(C)C(C(C)=O)=CC[C@@H]56)[C@@]4(C)CC3)ccc2c1 as the compound, how does the Activity [3] read?
A: Active

Q: And the Activity [4]?
A: Active

Q: And the IC50 [5]?
A: 17.7 µM

Q: And the Activity [2]?
A: Active

Q: For CC(=O)C1=CC[C@H]2[C@@H]3CC(=O)C4=C[C@@H](OC(=O)[C@H](C)c5cccc(C(=O)c6ccccc6)c5)CC[C@]4(C)[C@H]3CC[C@]12C, which Activity [2] is on record?
A: inactive

Q: With CC(=O)C1=CC[C@H]2[C@@H]3CC(=O)C4=C[C@@H](OC(=O)[C@H](C)c5ccc(CC(C)C)cc5)CC[C@]4(C)[C@H]3CC[C@]12C as the compound, how does the Activity [2] read?
A: Active

Q: What about the Activity [6] of the same compound?
A: Active

Q: Which IC50 [5] does the source give for CC(=O)C1=CC[C@H]2[C@@H]3CC(=O)C4=C[C@@H](O)CC[C@]4(C)[C@H]3CC[C@]12C here?
A: 3.02 µM

Q: And the Activity [7]?
A: Active

Q: Which Activity [2] does the source give for COc1ccc2cc([C@H](C)C(=O)O)ccc2c1 here?
A: inactive

Q: For COc1ccc2c(c1)c(CC(=O)O[C@@H]1C=C3C(=O)C[C@@H]4[C@H](CC[C@]5(C)C(C(C)=O)=CC[C@@H]45)[C@@]3(C)CC1)c(C)n2C(=O)c1ccc(Cl)cc1, which IC50 [5] is on record?
A: 0.016 µM

Q: What about the Activity [2] of the same compound?
A: Active

Q: And the Activity [6]?
A: Active

Q: Which Activity [2] does the source give for COc1ccc2c(c1)c(CC(=O)O)c(C)n2C(=O)c1ccc(Cl)cc1 here?
A: inactive

Q: For CC(C)Cc1ccc(C(C)C(=O)O)cc1 (stereo not drawn), which Activity [2] is on record?
A: inactive
